Earlier results, collected in patent publication US20130177630A1 (priority 2012, published 2013).

Tested on: fibrolamellar hepatocellular carcinoma
Conditions: patient with fibrolamellar hepatocellular carcinoma

Compound: O=C(O)C(=O)CBr [3-bromopyruvate]
- side effects: severe side effects
- treatment outcome (survival): life-extension characteristics
